Test results as given in patent US20210000730A1, “COMPOSITION COMPRISING OPTICAL CLEARING AGENT FOR IMPROVING OPTICAL CHARACTERISTIC OF SKIN” (LG HOUSEHOLD & HEALTH CARE LTD., priority 2018, published 2021).
Entries after “also recorded” stand apart in the source; their conditions may differ.

Test system: corneum of subjects collected using corneum tape
Experiment: Reduction of light scattering of corneum tape, dark field image of polarization microscope with image analysis
Conditions: washed and dried after 3~4 hours
Text: The bright field image is a basic observation method of simply magnifying a sample without a unique optical unit and it is suitable for confirming the structure of the sample, but it is not appropriate for confirming the scattering light. The dark field image is an observation method of inducing the direct illumination light reaching the sample out, and collecting only the scattering light from the sample with objective lens, and the light from the upper light source of the microscope is scattered from the keratinocytes and appears white, and as the scattering decreases, it appears black.
The numerical value of the analyzed image is expressed in the range of 30-200, and the more the white image is, the higher the value is. The average value of the image numerical value of the unapplied site and the average value of the image numerical value of the applied site were obtained, and the reduction ratio of the image numerical value of the applied site compared to the unapplied site was calculated as a percentage.
On the other hand, to compare the effect of the present disclosure by relative values at the same concentration, the solution of urea, glycerol, sucrose, sodium lactate, polyethylene glycol 400 and hexanediol of the same concentration (10% by weight) was prepared and compared and evaluated (FIG. 3a). […]

## NC(N)=O [urea]
10% of urea, 100 ul applied
  reduction of light scattering compared to the control group (water): 17%
Urea applied to corneum tape, control water
  light scattering of corneum after treatment, washing and drying (photograph, dark field image): the scattering was reduced and it appeared transparent; also recorded: corneum scattering was reduced and appeared black
